In article PMC7838546, “A Thermostable, Modified Cathelicidin-Derived Peptide With Enhanced Membrane-Active Activity Against Salmonella enterica serovar Typhimurium” (Frontiers in Microbiology, 2021):
Ends that are not written are not given here.

Legend:
Experiment in all cases: MIC/MBC, broth microdilution and colony count
Format in all cases: cell-based, Salmonella enterica serovar Typhimurium
[1] = system: S. enterica serovar Typhimurium H1-001 (clinical isolate); settings: H1-001, blood, resistant Amp, Ctx, C, Cp, NA, T, intermediate Amc, broth microdilution, 37°C, 24 h
Method: (§1) Salmonella enterica serovar Typhimurium ATCC 13311, 24 drug-resistant foodborne and eleven drug-resistant human borne S. enterica serovar Typhimurium and 4,5,12:i:- isolates (Table 1) were used as test microorganisms. They were previously isolated for molecular characterization in 2014 and kindly provided by Dr. Soraya Chaturongakul (Mahidol University, Thailand) ([Huoy et al., 2014]). All bacteria were cultured in Tryptic Soy Broth (TSB) and incubated at 37°C for 18 h. Mueller Hinton Broth (MHB) was then used to wash and rinse the bacteria. The bacterial suspensions were then diluted to obtain concentrations of 10^7 CFU/ml for inoculations.
(§2) A modified version of the National Committee for Clinical Laboratory Standards (NCCLS) broth microdilution method ([Steinberg et al., 1997]) was used to determine the minimum inhibitory concentrations (MICs) of peptide and compared to that of nisin. Fifty microliters of two-fold serial dilutions of each peptide [0.98–250 μg/ml in 0.01% (v/v) acetic acid and 0.2% (w/v) bovine serum albumin (BSA, Sigma-Aldrich, MO, United States)], were incubated with 50 μl of bacterial suspensions (approximately 10^7 CFU/ml) at 37°C for 24 h in a shaking incubator. MICs were taken as the lowest concentration of peptide at which growth was inhibited as observed by visual inspection. Bacterial cultures without peptides and uncultured broth were used as positive and negative controls, respectively. Minimal bactericidal concentrations (MBCs) were determined using a colony count assay ([Clinical Laboratory Standards Institute [CLSI], 2015]). Fifty microliters of samples from each non-turbid well in the MIC determination experiment was plated on Mueller Hinton Agar (MHA) and colonies were observed after overnight incubation at 37°C. MBCs were designated as the least concentration showing no colony growth on the plate. All of experiments were performed in triplicate.

[2] = system: S. enterica serovar Typhimurium H1-041 (clinical isolate); settings: H1-041, stool, resistant Amp, Ctx, C, T, SxT, intermediate Amc, Cp, NA, broth microdilution, 37°C, 24 h
Method: as §1, §2

[3] = system: S. enterica serovar Typhimurium H1-062 (clinical isolate); settings: H1-062, stool, resistant Amc, Amp, Ctx, C, NA, T, intermediate Cp, broth microdilution, 37°C, 24 h
Method: as §1, §2

Measured: MIC

Nisin: authorized food preservative peptide, binds lipid II and forms membrane pores (ITSISLCTPGCKTGALMGCNMKTATCHCSIHVSK; cysteine pairing not given here; also: lantibiotic nisin-A; UniProt P13068 24-57, looked up)
>1000 µg/mL: all assays above
